Measured values taken from patent publication US8471005B2 (Cephalon, Inc., priority 2008, dated 2013).

Legend:
JAK2 = target: T1, JAK2 (Homo sapiens, UniProt O60674); assay: Recombinant Human JAK2 Kinase Assay (TRF); type: biochemical; conditions: JAK2 Kinase Inhibition; read-out: JAK2 Potency
T1 construct: host or cells: baculovirus expression system
Method in brief: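 Baculovirus-expressed JAK2 (15 ng/ml) phosphorylated a biotinylated 15-mer peptide captured on Neutravidin-coated plates, in 20 mM HEPES pH 7.2 with 0.2 μM ATP, 1 mM MnCl2, 0.1% BSA and 2.5% DMSO. Reaction ran 20 min at room temperature; phosphopeptide was detected by time-resolved fluorescence with Eu-N1-labelled PY100 antibody.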

ALK = target: T2, ALK (Homo sapiens, UniProt Q9UM73); assay: ALK Kinase Assay (ELISA/TRF, PLC-γ substrate); type: biochemical; conditions: ALK Kinase Inhibition; read-out: ALK Potency
T2 construct: host or cells: baculovirus expression system
T2 sequence (Q9UM73 19-1620): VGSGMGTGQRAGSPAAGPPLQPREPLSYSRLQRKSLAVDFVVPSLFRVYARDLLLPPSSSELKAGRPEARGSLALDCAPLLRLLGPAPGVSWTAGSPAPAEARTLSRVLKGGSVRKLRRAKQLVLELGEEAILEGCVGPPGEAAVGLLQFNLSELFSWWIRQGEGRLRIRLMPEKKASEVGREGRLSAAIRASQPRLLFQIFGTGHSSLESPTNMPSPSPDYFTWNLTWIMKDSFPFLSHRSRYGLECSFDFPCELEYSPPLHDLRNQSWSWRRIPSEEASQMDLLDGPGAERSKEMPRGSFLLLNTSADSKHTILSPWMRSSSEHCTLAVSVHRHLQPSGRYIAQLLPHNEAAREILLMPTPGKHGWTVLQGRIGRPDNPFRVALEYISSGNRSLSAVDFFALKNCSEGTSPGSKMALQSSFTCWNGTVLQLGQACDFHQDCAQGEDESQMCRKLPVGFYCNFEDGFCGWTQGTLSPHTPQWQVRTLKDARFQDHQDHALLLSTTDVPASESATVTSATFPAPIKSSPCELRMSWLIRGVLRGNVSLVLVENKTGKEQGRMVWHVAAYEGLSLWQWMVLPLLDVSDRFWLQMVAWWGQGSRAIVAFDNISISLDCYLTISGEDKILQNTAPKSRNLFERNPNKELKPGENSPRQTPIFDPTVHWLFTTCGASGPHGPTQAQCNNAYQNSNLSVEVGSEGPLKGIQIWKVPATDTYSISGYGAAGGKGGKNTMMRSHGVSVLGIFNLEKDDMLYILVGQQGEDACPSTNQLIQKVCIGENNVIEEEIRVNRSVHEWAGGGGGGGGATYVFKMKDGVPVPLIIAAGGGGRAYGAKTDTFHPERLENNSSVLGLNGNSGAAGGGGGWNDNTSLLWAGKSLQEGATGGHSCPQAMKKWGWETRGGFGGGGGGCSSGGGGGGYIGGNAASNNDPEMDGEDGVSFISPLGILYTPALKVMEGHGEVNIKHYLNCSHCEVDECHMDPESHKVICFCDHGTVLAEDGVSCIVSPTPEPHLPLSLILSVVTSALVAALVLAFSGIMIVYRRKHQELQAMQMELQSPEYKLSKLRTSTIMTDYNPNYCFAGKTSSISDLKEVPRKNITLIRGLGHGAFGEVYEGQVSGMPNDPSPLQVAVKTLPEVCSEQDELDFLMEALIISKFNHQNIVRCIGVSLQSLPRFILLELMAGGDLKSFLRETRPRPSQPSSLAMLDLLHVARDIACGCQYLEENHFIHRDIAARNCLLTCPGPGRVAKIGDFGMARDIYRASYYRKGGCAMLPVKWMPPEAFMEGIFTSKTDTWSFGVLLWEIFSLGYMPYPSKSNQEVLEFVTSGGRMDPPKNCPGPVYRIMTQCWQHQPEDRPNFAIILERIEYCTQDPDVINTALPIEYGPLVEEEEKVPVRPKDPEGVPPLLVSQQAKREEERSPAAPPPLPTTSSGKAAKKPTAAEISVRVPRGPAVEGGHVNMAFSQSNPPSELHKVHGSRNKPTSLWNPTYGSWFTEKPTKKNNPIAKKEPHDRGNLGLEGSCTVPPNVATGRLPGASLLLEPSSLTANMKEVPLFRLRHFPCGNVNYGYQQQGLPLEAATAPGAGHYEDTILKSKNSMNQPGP
Method in brief: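 Time-resolved fluorescence ELISA using Eu-N1 PT66 antibody to detect phosphorylated PLC-γ (coated at 10 μg/mL). Enzyme at 30 ng/ml ALK; 15 min incubation, 37° C.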

T1 sequence (O60674 whole entry): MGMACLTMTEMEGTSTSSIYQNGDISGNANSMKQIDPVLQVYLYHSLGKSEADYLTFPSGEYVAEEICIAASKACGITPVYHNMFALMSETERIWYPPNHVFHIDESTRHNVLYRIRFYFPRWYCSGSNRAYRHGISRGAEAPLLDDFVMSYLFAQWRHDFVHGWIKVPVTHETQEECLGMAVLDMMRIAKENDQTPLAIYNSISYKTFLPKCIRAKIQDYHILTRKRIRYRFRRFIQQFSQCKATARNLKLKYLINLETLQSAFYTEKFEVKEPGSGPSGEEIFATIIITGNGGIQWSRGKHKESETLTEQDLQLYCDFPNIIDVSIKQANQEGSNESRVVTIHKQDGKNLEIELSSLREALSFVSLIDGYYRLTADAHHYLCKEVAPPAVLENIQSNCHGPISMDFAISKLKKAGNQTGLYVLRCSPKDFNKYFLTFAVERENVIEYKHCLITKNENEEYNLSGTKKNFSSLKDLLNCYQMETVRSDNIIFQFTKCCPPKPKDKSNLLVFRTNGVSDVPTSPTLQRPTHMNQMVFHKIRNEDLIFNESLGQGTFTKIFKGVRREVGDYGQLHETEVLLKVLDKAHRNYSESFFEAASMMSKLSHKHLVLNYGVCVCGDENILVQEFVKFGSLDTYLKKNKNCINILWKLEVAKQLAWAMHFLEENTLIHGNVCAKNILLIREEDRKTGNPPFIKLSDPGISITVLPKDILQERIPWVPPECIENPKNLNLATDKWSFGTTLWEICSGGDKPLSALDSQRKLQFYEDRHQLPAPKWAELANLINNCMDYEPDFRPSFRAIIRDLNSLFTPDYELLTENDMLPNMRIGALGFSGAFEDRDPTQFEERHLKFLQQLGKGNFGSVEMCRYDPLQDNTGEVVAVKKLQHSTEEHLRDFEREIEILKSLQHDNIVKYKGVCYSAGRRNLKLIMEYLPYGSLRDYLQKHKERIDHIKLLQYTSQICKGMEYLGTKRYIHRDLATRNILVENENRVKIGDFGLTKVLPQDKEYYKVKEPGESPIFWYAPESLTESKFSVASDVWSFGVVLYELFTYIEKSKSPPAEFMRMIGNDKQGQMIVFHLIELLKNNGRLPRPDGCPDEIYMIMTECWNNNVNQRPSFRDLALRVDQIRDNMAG

SMILES	IC50 (JAK2)	IC50 (ALK)
COc1cc2c(cc1Nc1ncc3ccc(-c4ccccc4OC)n3n1)C(=O)CC1(CCN(C)CC1)O2 [Example 1491]	0.1 to 1 µM	< 0.1 µM
Cc1cc2[nH]c(=O)oc2cc1Nc1ncc2ccc(-c3ccccc3N(C)S(C)(=O)=O)n2n1 [Example 1492, N-Methyl-N-{2-[2-(5-methyl-2-oxo-2,3-dihydro-benzoxazol-6-ylamino)-pyrrolo[2,1-f][1,2,4]triazin-7-yl]-phenyl}-methanesulfonamide]	0.1 to 1 µM	0.1 to 1 µM
Cc1c(Nc2ncc3ccc(-c4ccccc4N(C)S(C)(=O)=O)n3n2)ccc2[nH]c(=O)oc12 [Example 1493, N-Methyl-N-{2-[2-(7-methyl-2-oxo-2,3-dihydro-benzoxazol-6-ylamino)-pyrrolo[2,1-f][1,2,4]triazin-7-yl]-phenyl}-methanesulfonamide]	0.1 to 1 µM	0.1 to 1 µM
COc1ccccc1-c1ccc2cnc(C#N)nn12 [Example 1494, 7-(2-Methoxy-phenyl)-pyrrolo[2,1-f][1,2,4]triazine-2-carbonitrile]	> 10 µM	> 10 µM
COc1ccccc1-c1ccc2cnc(C(N)=O)nn12 [Example 1495, 7-(2-Methoxy-phenyl)-pyrrolo[2,1-f][1,2,4]triazine-2-carboxylic acid amide]	> 10 µM	> 10 µM
COc1cc2c(cc1Nc1ncc3ccc(-c4ccccc4N(C)S(C)(=O)=O)n3n1)CCC1(CCN(C[C@H](C)O)CC1)O2 [Example 1496, N-{2-[2-({1′-[(25)-2-hydroxypropyl]-7-methoxy-3,4-dihydrospiro[chromene-2,4′-piperidin]-6-yl}amino)pyrrolo[2,1-f][1,2,4]triazin-7-yl]phenyl}-N-methylmethanesulfonamide]	1 to 10 µM	< 0.1 µM
CN1CCN(c2ccc(Nc3ncc4ccc(-c5ccc(CO)cc5)n4n3)cc2)CC1 [Example 1497, (4-{2-[4-(4-Methyl-piperazin-1-yl)-phenylamino]-pyrrolo[2,1-f][1,2,4]triazin-7-yl}-phenyl)-methanol]	< 0.1 µM	< 0.1 µM
CN1CCN(c2ccc(Nc3ncc4ccc(-c5cccc(CO)c5)n4n3)cc2)CC1 [Example 1498, (3-{2-[4-(4-Methyl-piperazin-1-yl)-phenylamino]-pyrrolo[2,1-f][1,2,4]triazin-7-yl}-phenyl)-methanol]	< 0.1 µM	< 0.1 µM
COCc1ccc(-c2ccc3cnc(Nc4ccc(N5CCN(C)CC5)cc4)nn23)cc1 [Example 1499, [7-(4-Methoxymethyl-phenyl)-pyrrolo[2,1-f][1,2,4]triazin-2-yl]-[4-(4-methyl-piperazin-1-yl)-phenyl]-amine]	< 0.1 µM	0.1 to 1 µM
COCc1ccccc1-c1ccc2cnc(Nc3ccc(N4CCN(C)CC4)cc3)nn12 [Example 1500, [7-(2-Methoxymethyl-phenyl)-pyrrolo[2,1-f][1,2,4]triazin-2-yl]-[4-(4-methyl-piperazin-1-yl)-phenyl]-amine]	< 0.1 µM	< 0.1 µM
COc1ccccc1-c1ccc2cnc(-c3nnc(C)[nH]3)nn12 [Example 1501, 7-(2-Methoxy-phenyl)-2-(5-methyl-4H-[1,2,4]triazol-3-yl)-pyrrolo[2,1-f][1,2,4]triazine]	> 10 µM	> 10 µM
COc1ccccc1-c1ccc2cnc(-c3nnn[nH]3)nn12 [Example 1502, 7-(2-Methoxy-phenyl)-2-(1H-tetrazol-5-yl)-pyrrolo[2,1-f][1,2,4]triazine]	> 10 µM	> 10 µM
COCc1cccc(-c2ccc3cnc(Nc4ccc(N5CCN(C)CC5)cc4)nn23)c1 [Example 1503, [7-(3-Methoxymethyl-phenyl)-pyrrolo[2,1-f][1,2,4]triazin-2-yl]-[4-(4-methyl-piperazin-1-yl)-phenyl]-amine]	< 0.1 µM	0.1 to 1 µM
CN1CCN(c2ccc(Nc3ncc4ccc(-c5ccccc5CO)n4n3)cc2)CC1 [Example 1504, (2-{2-[4-(4-Methyl-piperazin-1-yl)-phenylamino]-pyrrolo[2,1-f][1,2,4]triazin-7-yl}-phenyl)-methanol]	< 0.1 µM	0.1 to 1 µM
COc1ccccc1-c1ccc2cnc(-c3nc4cc(N5CCN(C)CC5)ccc4[nH]3)nn12 [Example 1505, 7-(2-Methoxy-phenyl)-2-[5-(4-methyl-piperazin-1-yl)-1H-benzimidazol-2-yl]-pyrrolo[2,1-f][1,2,4]triazine]	1 to 10 µM	1 to 10 µM
O=S1(=O)CCCN1c1cccc(-c2ccc3cnc(Nc4cccc(-n5cccn5)c4)nn23)c1 [Example 1506, 7-[3-(1,1-Dioxido-1,2-thiazolidin-2-yl)phenyl]-N-[3-(1H-pyrazol-1-yl)phenyl]pyrrolo[2,1-f][1,2,4]triazin-2-amine]	< 0.1 µM	> 10 µM
O=S1(=O)CCCN1c1cccc(-c2ccc3cnc(Nc4ccc5c(c4)CCC(N4CCOCC4)CC5)nn23)c1 (stereo not shown) [Example 1507, 7-[3-(1,1-Dioxido-1,2-thiazolidin-2-yl)phenyl]-N-[7-(morpholin-4-yl)-6,7,8,9-tetrahydro-5H-benzo[7]annulen-2-yl]pyrrolo[2,1-f][1,2,4]triazin-2-amine]	< 0.1 µM	0.1 to 1 µM
CC(=O)Nc1cccc(Nc2ncc3ccc(-c4cccc(N5CCCS5(=O)=O)c4)n3n2)c1 [Example 1508, N-[3-({7-[3-(1,1-Dioxido-1,2-thiazolidin-2-yl)phenyl]pyrrolo[2,1-f][1,2,4]triazin-2-yl}amino)phenyl]acetamide]	< 0.1 µM	1 to 10 µM
CN1CCN(c2cccc(Nc3ncc4ccc(-c5cccc(N6CCCS6(=O)=O)c5)n4n3)c2)CC1 [Example 1509, 7-[3-(1,1-Dioxido-1,2-thiazolidin-2-yl)phenyl]-N-[3-(4-methylpiperazin-1-yl)phenyl]pyrrolo[2,1-f][1,2,4]triazin-2-amine]	< 0.1 µM	0.1 to 1 µM
CC1(C)C(=O)Nc2cc(Nc3ncc4ccc(-c5cccc(N6CCCS6(=O)=O)c5)n4n3)ccc21 [Example 1510, 6-({7-[3-(1,1-Dioxido-1,2-thiazolidin-2-yl)phenyl]pyrrolo[2,1-f][1,2,4]triazin-2-yl}amino)-3,3-dimethyl-1,3-dihydro-2H-indol-2-one]	< 0.1 µM	1 to 10 µM
O=S1(=O)CCCN1c1cccc(-c2ccc3cnc(Nc4ccc5nc[nH]c5c4)nn23)c1 [Example 1511, N-(1H-Benzimidazol-6-yl)-7-[3-(1,1-dioxido-1,2-thiazolidin-2-yl)phenyl]pyrrolo[2,14][1,2,4]triazin-2-amine]	< 0.1 µM	1 to 10 µM
NC(=O)CN1CCC(c2ccc(Nc3ncc4ccc(-c5cccc(N6CCCS6(=O)=O)c5)n4n3)cc2)CC1 [Example 1512, 2-{4-[4-({7-[3-(1,1-Dioxido-1,2-thiazolidin-2-yl)phenyl]pyrrolo[2,1-f][1,2,4]triazin-2-yl}amino)phenyl]piperidin-1-yl}acetamide]	< 0.1 µM	0.1 to 1 µM
COc1ccc(-c2ccc3cnc(Nc4ccc5nc(CN6CCOCC6)[nH]c5c4)nn23)cn1 [Example 1513, [7-(6-Methoxy-pyridin-3-yl)-pyrrolo[2,1-f][1,2,4]triazin-2-yl]-(2-morpholin-4-ylmethyl-3H-benzimidazol-5-yl)-amine]	< 0.1 µM	1 to 10 µM
CC(C)(C)NS(=O)(=O)c1cccc(-c2ccc3cnc(Nc4ccc5nc(CN6CCOCC6)[nH]c5c4)nn23)c1 [Example 1514, N-tert-Butyl-3-[2-(2-morpholin-4-ylmethyl-3H-benzimidazol-5-ylamino)-pyrrolo[2,1-f][1,2,4]triazin-7-yl]-benzenesulfonamide]	< 0.1 µM	0.1 to 1 µM
CN1CCN(C(=O)C(F)(F)c2ccc(Nc3ncc4ccc(-c5cccc(S(=O)(=O)NC(C)(C)C)c5)n4n3)cc2)CC1 [Example 1515, N-tert-Butyl-3-(2-{4-[1,1-difluoro-2-(4-methyl-piperazin-1-yl)-2-oxo-ethyl]-phenylamino}-pyrrolo[2,1-f][1,2,4]triazin-7-yl)-benzenesulfonamide]	< 0.1 µM	0.1 to 1 µM
COc1ccc(-c2ccc3cnc(Nc4ccc(C(F)(F)C(=O)N5CCN(C)CC5)cc4)nn23)cn1 [Example 1516, 2,2-Difluoro-2-{4-[7-(6-methoxy-pyridin-3-yl)-pyrrolo[2,1-f][1,2,4]triazin-2-ylamino]-phenyl}-1-(4-methyl-piperazin-1-yl)-ethanone]	< 0.1 µM	1 to 10 µM
CN(c1ccccc1-c1ccc2cnc(Nc3ccc4nc(CN5CCOCC5)[nH]c4c3)nn12)S(C)(=O)=O [Example 1517, N-Methyl-N-{2-[2-(2-morpholin-4-ylmethyl-3H-benzimidazol-5-ylamino)-pyrrolo[2,1-f][1,2,4]triazin-7-yl]-phenyl}-methanesulfonamide]	< 0.1 µM	0.1 to 1 µM
COc1ccccc1-c1ccc2cnc(Nc3ccc4nc(CN5CCOCC5)[nH]c4c3)nn12 [Example 1518, [7-(2-Methoxy-phenyl)-pyrrolo[2,1-f][1,2,4]triazin-2-yl]-(2-morpholin-4-ylmethyl-3H-benzimidazol-5-yl)-amine]	< 0.1 µM	0.1 to 1 µM
COc1ccc(-c2ccc3cnc(Nc4cccc(C5CN(C)CCN5C)c4)nn23)cn1 (stereo not shown) [Example 1519, [3-(1,4-Dimethyl-piperazin-2-yl)-phenyl]-[7-(6-methoxy-pyridin-3-yl)-pyrrolo[2,1-f][1,2,4]triazin-2-yl]-amine]	< 0.1 µM	1 to 10 µM
